In this experiment the target is T1, hSCN3A sodium channels (Homo sapiens, UniProt Q9NY46).
T1 construct: expressed in transfected cells
Kind of experiment: hSCN3A electrophysiology, Ionworks Quattro automated platform (Table C). In kind it is cell-based. To be noted: for inhibition at 3 µM: 3 μM compound, read-out: SCN3A % INHIB HTS IWQ 3 μM; for inhibition at 10 µM: 10 μM compound, read-out: SCN3A % INHIB HTS IWQ 10 μM. The protocol:
Human Embryonic Kidney (HEK) cells were transfected with an hSCN3A construct using lipofectamine reagent (Invitrogen), using standard techniques. […] Clones were screened for expression using the whole-cell voltage-clamp technique.
HEK cells stably transfected with hSCN3A were maintained in DMEM medium supplemented with 10% heat-inactivated fetal bovine serum and 400 μg/ml G418 sulfate in an incubator at 37° C. with a humidified atmosphere of 10% CO2. […] For electrophysiological studies, cells were removed from the culture flask by brief trypsinization and replated at low density onto glass cover slips. Cells were typically used for electrophysiological experiments within 24 to 72 h after plating.
Electrophysiological assays were also conducted using the Ionworks Quattro automated electrophysiological platform (Molecular Devices Corp) (Table C). Intracellular and extracellular solutions were as described above with the following changes, 100 μg/ml amphotericin was added to the intracellular solution to perforate the membrane and allow electrical access to the cells. hSCN3A cells were grown and harvested as for PatchXpress and cells were resuspended in extracellular solution at a concentration of 3-4×10^6 cells/ml. The onboard liquid handling facility of the Ionworks Quattro was used for dispensing cells and application of test compounds. A voltage protocol was then applied that comprised of a voltage step to fully inactivate the sodium channels, followed by a brief hyperpolarized recovery period to allow partial recovery from inactivation for unblocked sodium channels, followed by a test depolarized voltage step to assess magnitude of inhibition by test compound. Compound effect was determined based on current amplitude difference between the pre-compound addition and post-compound addition scans.

T1 sequence (Q9NY46 whole entry): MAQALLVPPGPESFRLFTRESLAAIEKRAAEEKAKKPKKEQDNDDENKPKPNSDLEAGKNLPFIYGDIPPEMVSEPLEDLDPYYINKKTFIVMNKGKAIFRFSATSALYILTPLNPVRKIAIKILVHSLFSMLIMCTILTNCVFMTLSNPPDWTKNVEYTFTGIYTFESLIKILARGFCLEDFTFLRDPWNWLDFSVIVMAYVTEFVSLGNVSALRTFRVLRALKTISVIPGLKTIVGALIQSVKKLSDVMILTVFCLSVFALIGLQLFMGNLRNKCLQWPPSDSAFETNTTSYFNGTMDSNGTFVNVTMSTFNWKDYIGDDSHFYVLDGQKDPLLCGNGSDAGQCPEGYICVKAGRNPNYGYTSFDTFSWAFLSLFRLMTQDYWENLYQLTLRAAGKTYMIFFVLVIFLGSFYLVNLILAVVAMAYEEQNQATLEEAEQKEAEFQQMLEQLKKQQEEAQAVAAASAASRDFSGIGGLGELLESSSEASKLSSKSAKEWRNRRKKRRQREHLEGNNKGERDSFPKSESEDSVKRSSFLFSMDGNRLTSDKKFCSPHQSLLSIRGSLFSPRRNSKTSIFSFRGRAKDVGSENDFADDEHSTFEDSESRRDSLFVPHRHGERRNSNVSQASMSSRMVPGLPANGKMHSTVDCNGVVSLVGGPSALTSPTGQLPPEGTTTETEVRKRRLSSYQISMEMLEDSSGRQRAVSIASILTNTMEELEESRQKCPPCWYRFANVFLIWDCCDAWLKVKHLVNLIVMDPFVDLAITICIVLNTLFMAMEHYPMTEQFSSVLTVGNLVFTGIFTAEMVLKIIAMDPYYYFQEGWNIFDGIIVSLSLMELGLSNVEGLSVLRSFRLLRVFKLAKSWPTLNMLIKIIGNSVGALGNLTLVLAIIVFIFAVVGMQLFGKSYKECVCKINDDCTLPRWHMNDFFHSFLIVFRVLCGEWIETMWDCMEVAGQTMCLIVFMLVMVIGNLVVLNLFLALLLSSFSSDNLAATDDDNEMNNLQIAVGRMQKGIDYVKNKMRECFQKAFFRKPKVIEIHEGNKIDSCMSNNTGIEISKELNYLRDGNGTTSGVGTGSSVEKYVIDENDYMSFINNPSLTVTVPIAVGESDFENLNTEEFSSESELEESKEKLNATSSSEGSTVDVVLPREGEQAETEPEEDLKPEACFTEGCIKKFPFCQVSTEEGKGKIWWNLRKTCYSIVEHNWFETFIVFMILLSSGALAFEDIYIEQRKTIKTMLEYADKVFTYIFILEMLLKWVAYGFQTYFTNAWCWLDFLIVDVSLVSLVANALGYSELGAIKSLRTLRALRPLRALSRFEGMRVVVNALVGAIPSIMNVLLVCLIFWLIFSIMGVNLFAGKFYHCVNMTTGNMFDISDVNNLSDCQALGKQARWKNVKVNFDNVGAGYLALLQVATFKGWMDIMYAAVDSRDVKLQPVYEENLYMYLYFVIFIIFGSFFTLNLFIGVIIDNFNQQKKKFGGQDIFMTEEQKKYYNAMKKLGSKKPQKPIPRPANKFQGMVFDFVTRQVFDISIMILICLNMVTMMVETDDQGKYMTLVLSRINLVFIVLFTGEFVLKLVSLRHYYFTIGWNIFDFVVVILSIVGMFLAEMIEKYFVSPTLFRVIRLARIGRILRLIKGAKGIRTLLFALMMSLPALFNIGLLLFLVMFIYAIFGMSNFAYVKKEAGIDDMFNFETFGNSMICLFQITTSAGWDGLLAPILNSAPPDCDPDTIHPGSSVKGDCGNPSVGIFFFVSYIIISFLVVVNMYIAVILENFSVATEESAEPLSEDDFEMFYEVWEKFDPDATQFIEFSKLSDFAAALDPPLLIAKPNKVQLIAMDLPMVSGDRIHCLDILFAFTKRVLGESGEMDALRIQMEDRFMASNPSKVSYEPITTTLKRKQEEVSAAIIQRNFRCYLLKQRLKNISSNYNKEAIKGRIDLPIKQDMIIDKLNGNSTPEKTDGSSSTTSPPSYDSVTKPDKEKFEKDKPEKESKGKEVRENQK

As to `O=C(NC(CO)c1ccccc1Cl)c1ccc(S(=O)(=O)Nc2nccs2)cc1` (stereo not drawn) [Example 56, N-[1-(2-chlorophenyl)-2-hydroxyethyl]-4-[(1,3-thiazol-2-ylamino)sulfonyl]benzamide], the inhibition at 3 µM came out at 3.23% and the inhibition at 10 µM was found to be 2.53%.
The like results for `O=C(NC(CO)c1ccccc1)c1ccc(S(=O)(=O)Nc2nccs2)cc1` (stereo not drawn) [Example 57, N-(2-hydroxy-1-phenylethyl)-4-[(1,3-thiazol-2-ylamino)sulfonyl]benzamide] were, in that order, 25.2% and 47.8%.
Turning to `Cc1ccc(F)cc1CNC(=O)c1ccc(S(=O)(=O)Nc2nccs2)cc1` [Example 58, N-(5-fluoro-2-methylbenzyl)-4-[(1,3-thiazol-2-ylamino)sulfonyl]benzamide], the inhibition at 3 µM came to 37.4% and the inhibition at 10 µM is 49.7%.
As to `O=C(NCc1ccccc1OC(F)F)c1ccc(S(=O)(=O)Nc2nccs2)cc1` [Example 66, N-[2-(difluoromethoxy)benzyl]-4-[(1,3-thiazol-2-ylamino)sulfonyl]benzamide], the inhibition at 3 µM was 16.4% and the inhibition at 10 µM stood at 34.4%.
Regarding `Cc1cccc(CNC(=O)c2ccc(S(=O)(=O)Nc3nccs3)cc2)c1` [Example 71, N-(3-methylbenzyl)-4-[(1,3-thiazol-2-ylamino)sulfonyl]benzamide], the inhibition at 3 µM stood at 38.8% and the inhibition at 10 µM was found to be 37.1%.
In the same order, the values of `O=C(NCc1cc(C(F)(F)F)ccc1F)c1ccc(S(=O)(=O)Nc2nccs2)cc1` [Example 76, N-[2-fluoro-5-(trifluoromethyl)benzyl]-4-[(1,3-thiazol-2-ylamino)sulfonyl]benzamide] are 35.8% and 52.1%.
For the molecule `O=C(NCCc1ccccc1F)c1ccc(S(=O)(=O)Nc2nccs2)cc1` [Example 77, N-[2-(2-fluorophenyl)ethyl]-4-[(1,3-thiazol-2-ylamino)sulfonyl]benzamide], the inhibition at 3 µM was determined as 16.6% and the inhibition at 10 µM was 27.9%.
The like results for `Cc1ccc([C@H](C)NC(=O)c2ccc(S(=O)(=O)Nc3nccs3)cc2)cc1` [Example 79, N-[(1S)-1-(4-methylphenyl)ethyl]-4-[(1,3-thiazol-2-ylamino)sulfonyl]benzamide] were, in that order, 17.7% and -1.9%.
With `O=C(NCc1cc(F)ccc1C(F)(F)F)c1ccc(S(=O)(=O)Nc2nccs2)cc1` [Example 81, N-[5-fluoro-2-(trifluoromethyl)benzyl]-4-[(1,3-thiazol-2-ylamino)sulfonyl]benzamide], the inhibition at 3 µM came to 34.7% and the inhibition at 10 µM turned out to be 65.7%.
The like results for `Cc1cccc(CNC(=O)c2ccc(S(=O)(=O)Nc3nccs3)cc2)c1C` [Example 82, N-(2,3-dimethylbenzyl)-4-[(1,3-thiazol-2-ylamino)sulfonyl]benzamide] were, in that order, 29.7% and 63%.
In the same order, the values of `O=C(NCc1c(F)cccc1C(F)(F)F)c1ccc(S(=O)(=O)Nc2nccs2)cc1` [Example 84, N-[2-fluoro-6-(trifluoromethyl)benzyl]-4-[(1,3-thiazol-2-ylamino)sulfonyl]benzamide] are 17.7% and 22.2%.
As to `O=C(NCc1c(F)cccc1Cl)c1ccc(S(=O)(=O)Nc2nccs2)cc1` [Example 86, N-(2-chloro-6-fluorobenzyl)-4-[(1,3-thiazol-2-ylamino)sulfonyl]benzamide], the inhibition at 3 µM was 22.3% and the inhibition at 10 µM worked out at 26.3%.
`O=C(NCc1cc(F)ccc1F)c1ccc(S(=O)(=O)Nc2nccs2)cc1` [Example 87, N-(2,5-difluorobenzyl)-4-[(1,3-thiazol-2-ylamino)sulfonyl]benzamide]: the inhibition at 3 µM stood at 36.9% and the inhibition at 10 µM was 46.2%.
In the same order, the values of `CCOc1ccccc1CNC(=O)c1ccc(S(=O)(=O)Nc2nccs2)cc1` [Example 89, N-(2-ethoxybenzyl)-4-[(1,3-thiazol-2-ylamino)sulfonyl]benzamide] are 14% and 48.2%.
The like results for `Cc1ccc(CNC(=O)c2ccc(S(=O)(=O)Nc3nccs3)cc2)cc1` [Example 98, N-(4-methylbenzyl)-4-[(1,3-thiazol-2-ylamino)sulfonyl]benzamide] were, in that order, 28.1% and 36.6%.
In the same order, the values of `O=C(NCCc1ccc(F)cc1)c1ccc(S(=O)(=O)Nc2nccs2)cc1` [Example 102, N-[2-(4-fluorophenyl)ethyl]-4-[(1,3-thiazol-2-ylamino)sulfonyl]benzamide] are 22.4% and 37.2%.
As to `CC(NC(=O)c1ccc(S(=O)(=O)Nc2nccs2)cc1)c1ccc(F)cc1` (stereo not drawn) [Example 103, N-[1-(4-fluorophenyl)ethyl]-4-[(1,3-thiazol-2-ylamino)sulfonyl]benzamide], the inhibition at 3 µM stood at 21.2% and the inhibition at 10 µM came out at 46.8%.
On to `O=C(NCC1(c2ccccc2)CCCC1)c1ccc(S(=O)(=O)Nc2nccs2)cc1` [Example 121, N-[(1-phenylcyclopentyl)methyl]-4-[(1,3-thiazol-2-ylamino)sulfonyl]benzamide], for which the inhibition at 3 µM is 31.1% and the inhibition at 10 µM worked out at 30.2%.
As to `CC(C)(NC(=O)c1ccc(S(=O)(=O)Nc2nccs2)cc1)c1cccc(Cl)c1` [Example 127, N-[1-(3-chlorophenyl)-1-methylethyl]-4-[(1,3-thiazol-2-ylamino)sulfonyl]benzamide], the inhibition at 3 µM was determined as 28.9% and the inhibition at 10 µM turned out to be 28.7%.
For `O=C(N[C@@H]1CCC[C@@H]1c1cc(F)cc(F)c1)c1ccc(S(=O)(=O)Nc2nccs2)cc1` [Example 128, N-[(1R,2R)-2-(3,5-difluorophenyl)cyclopentyl]-4-[(1,3-thiazol-2-ylamino)sulfonyl]benzamide], the inhibition at 3 µM came to 11.7% and the inhibition at 10 µM was -1.66%.
For `O=C(NC1(Cc2ccccc2Cl)CC1)c1ccc(S(=O)(=O)Nc2nccs2)cc1` [Example 129, N-[1-(2-chlorobenzyl)cyclopropyl]-4-[(1,3-thiazol-2-ylamino)sulfonyl]benzamide], the inhibition at 3 µM was found to be 13.6% and the inhibition at 10 µM is 24.2%.
The like results for `CC(Cc1ccc(C(F)(F)F)cc1)NC(=O)c1ccc(S(=O)(=O)Nc2nccs2)cc1` (stereo not drawn) [Example 130, N-{1-methyl-2-[4-(trifluoromethyl)phenyl]ethyl}-4-[(1,3-thiazol-2-ylamino)sulfonyl]benzamide] were, in that order, 23.1% and 16.5%.
Take `O=C(N[C@H]1CCC[C@@H]1c1ccccc1)c1ccc(S(=O)(=O)Nc2nccs2)cc1` [Example 131, N-[(1S,2R)-2-phenylcyclopentyl]-4-[(1,3-thiazol-2-ylamino)sulfonyl]benzamide]: the inhibition at 3 µM amounted to 27.2% and the inhibition at 10 µM is 13.1%.
With `O=C(N[C@@H]1CCC[C@@H]1c1ccc(F)cc1)c1ccc(S(=O)(=O)Nc2nccs2)cc1` [Example 132, N-[(1R,2R)-2-(4-fluorophenyl)cyclopentyl]-4-[(1,3-thiazol-2-ylamino)sulfonyl]benzamide], the inhibition at 3 µM was determined as 19.7% and the inhibition at 10 µM was 15.3%.
The like results for `O=C(NC1(c2cccc(Cl)c2)CC1)c1ccc(S(=O)(=O)Nc2nccs2)cc1` [Example 135, N-[1-(3-chlorophenyl)cyclopropyl]-4-[(1,3-thiazol-2-ylamino)sulfonyl]benzamide] were, in that order, 27.4% and 30.1%.
The like results for `O=C(NC1(Cc2cccc(Cl)c2)CC1)c1ccc(S(=O)(=O)Nc2nccs2)cc1` [Example 137, N-[1-(3-chlorobenzyl)cyclopropyl]-4-[(1,3-thiazol-2-ylamino)sulfonyl]benzamide] were, in that order, 21.8% and 36.2%.
The like results for `O=C(N[C@@H]1CCC[C@@H]1c1ccccc1)c1ccc(S(=O)(=O)Nc2nccs2)cc1` [Example 138, N-[(1R,2R)-2-phenylcyclopentyl]-4-[(1,3-thiazol-2-ylamino)sulfonyl]benzamide] were, in that order, 16.2% and 11.2%.
`O=C(NC(c1c(F)cccc1F)C1CC1)c1ccc(S(=O)(=O)Nc2nccs2)cc1` (stereo not drawn) [Example 140, N-[cyclopropyl(2,6-difluorophenyl)methyl]-4-[(1,3-thiazol-2-ylamino)sulfonyl]benzamide]: the inhibition at 3 µM was 2.34% and the inhibition at 10 µM is 18.9%.
Take `CC(C)(NC(=O)c1ccc(S(=O)(=O)Nc2nccs2)cc1)c1cc(F)cc(F)c1` [Example 141, N-[1-(3,5-difluorophenyl)-1-methylethyl]-4-[(1,3-thiazol-2-ylamino)sulfonyl]benzamide]: the inhibition at 3 µM came out at 6.82% and the inhibition at 10 µM was found to be 25%.
As for `CCC(NC(=O)c1ccc(S(=O)(=O)Nc2nccs2)cc1)c1ccc(F)cc1` (stereo not drawn) [Example 142, N-[1-(4-fluorophenyl)propyl]-4-[(1,3-thiazol-2-ylamino)sulfonyl]benzamide], the inhibition at 3 µM worked out at 30.4% and the inhibition at 10 µM amounted to 31.5%.

Source of the values: US8741934B2, “Inhibitors of ion channels” (Pfizer Limited, priority 2007, dated 2014).
